According to patent publication US8628754B2, “Highly efficient delivery of a large therapeutic mass aerosol” (Civitas Therapeutics, Inc., priority 2000, dated 2014):
Like-named read-outs stand apart in the source and are kept apart here.

Experiments:
[1] = test system: rat model of Parkinson's disease; assay: Rotation test; assay type: in vivo
[2] = test system: rat model of Parkinson's disease; assay: Bracing task; assay type: in vivo
[3] = test system: rat model of Parkinson's disease; assay: Akinesia task; assay type: in vivo
[4] = test system: rat model of Parkinson's disease; assay: Placing task; assay type: in vivo
[5] = oral gavage, 8 mg in saline with 1% methylcellulose, carbidopa pre-treatment, 0-30 min
Tap density = assay type: physicochemical
Text: Tap density can be measured by using instruments known to those skilled in the art such as the Dual Platform Microprocessor Controlled Tap Density Tester (Vankel, N.C.). Tap density is a standard measure of the envelope mass density. Tap density can be determined using the method of USP Bulk Density and Tapped Density, United States Pharmacopia convention, Rockville, Md., 10th Supplement, 4950-4951, 1999. In another embodiment, the particles have a mass median geometric diameter (MMGD) greater than about 5 μm and preferably near to or greater than about 10 μm. In one embodiment, the particles have a MMGD greater than about 5 μm and ranging to about 30 μm. In another embodiment, the particles have a MMGD ranging from about 10 μm to about 30 μm.

[6] = Aerodynamic diameter by AeroDisperser/Aerosizer (AeroBreather for emitted size); assay type: physicochemical; details: AIR inhaler at 30 L/min, FIG. 2B
Procedure: The primary aerodynamic diameter was measured using an AeroDisperser/Aerosizer (TSI Inc., Amherst, Mass.). The sample powder was aerosolized by an inlet air stream at 1 psi in the AeroDisperser and then accelerated to sonic velocity into the Aerosizer. The Aerosizer measures the time taken for each particle to pass between two fixed laser beams, which is dependent on the particle's inertia. The TOF (time of flight) measurements were subsequently converted into aerodynamic diameters using Stokes law.
The emitted aerodynamic diameter from the AIR inhaler was determined using the AeroBreather (TSI Inc., Amherst, Mass.) in conjunction with the Aerosizer (TSI, Inc.). The powder was aerosolized from the inhaler at 30 L/min into the AeroBreather chamber and allowed to settle into the Aerosizer.
Aerodynamic diameter was analyzed using the API AeroDisperser and Aerosizer (TSI, Inc., St. Paul, Minn.) following standard procedures (Alkermes SOP #MS-034-005). Sample powder was introduced and dispersed in the AeroDisperser and then accelerated through a nozzle in the Aerosizer. A direct time-of-flight measurement was made for each particle in the Aerosizer, which was dependent on the particle's inertia. The time-of-flight distribution was then translated into a mass-based aerodynamic particle size distribution using a force balance based on Stokes law.

[7] = Geometric diameter by RODOS dry powder disperser / HELOS laser diffraction; assay type: physicochemical
Text: The Applicants introduced the powders into and dispersed the powder through an orifice in the RODOS dry powder disperser at varying shear forces by manipulating the regulator pressure of the air stream used to break up the particles. The Applicants obtained the geometric size distribution from the HELOS laser diffractometer as the powder exited and recorded the median value. The data was summarized and plotted as the mass median geometric diameter (MMGD) against pressure.
To evaluate the deagglomeration properties of the three powders, Applicants introduced the powders into a RODOS dry powder disperser and varied the shear force in order to break up the particles by manipulating the regulator pressure of the air stream. Subsequently, following the manufacturer's instructions, Applicants obtained the geometric size distribution from the HELOS laser diffractometer and recorded the median value. The data was summarized and plotted as […] (MMGD) against pressure.
Particles of the present invention were further characterized by the following techniques. The primary geometric diameter was measured using a RODOS dry powder disperser (Sympatec, Princeton, N.J.) in conjunction with a HELOS laser diffractometer (Sympatec). Powder was introduced into the RODOS inlet and aerosolized by shear forces generated by a compressed air stream regulated at 4 bar. The aerosol cloud was subsequently drawn into the measuring zone of the HELOS, where it scattered light from a laser beam and produced a Fraunhofer diffraction pattern used to infer the particle size distribution.
Geometric diameter was determined using a laser diffraction technique (Alkermes SOP #MS-021-005). The equipment consists of a HELOS diffractometer and a RODOS disperser (Sympatec, Inc., Princeton, N.J.). The RODOS disperser applies a shear force to a sample of particles, controlled by the regulator pressure of the incoming compressed air. The dispersed particles travel through a laser beam where the resulting diffracted light pattern produced is collected by a series of detectors. […]

[8] = Geometric diameter emitted from breath-activated inhaler (IHA/HELOS); assay type: physicochemical; details: 5 mg in size #2 capsule
Procedure: To further evaluate the ability of the three powders to emit from a simple, breath-activated inhaler, Applicants placed 5 mg of each powder in a size #2 methyl cellulose capsule and inserted the capsule into a breath-activated inhaler. It will be appreciated by those skilled in the art that the receptacle into which the powders are placed will depend on the type of inhaler selected. […] The same results were obtained from measurements of the aerodynamic diameter, with spray-dried particles emitting with very similar aerodynamic diameters as compared to the primary particles.
The geometric diameter emitted from the breath-activated inhaler was measured using an IHA accessory (Sympatec) with the HELOS laser diffractometer. The IHA adapter positions the DPI in front of the measuring zone and allows air to be pulled through the DPI which aerosolizes the powder. Vacuum was drawn at 30 L/min to disperse powder from the AIR inhaler and the geometric diameter was measured by Fraunhofer diffraction.

CC(C(=O)O)c1cccc(C(=O)c2ccccc2)c1 (stereo not drawn) [Ketoprofen]
time required to achieve maximum plasma concentration (insufflated rats): < 15 min
time required to achieve maximum plasma concentration (orally dosed rats): 15 to 60 min
time required to achieve maximum plasma concentration (pulmonary delivery route): ≤ 10 min
plasma levels of ketoprofen, insufflated versus oral group (t=5 min to t=60 min): significantly higher
plasma levels of ketoprofen, insufflated versus oral group (t=120 min and t=240 min): statistically equivalent

N[C@@H](Cc1ccc(O)c(O)c1)C(=O)O [L-Dopa]
rotation behavior without pre-treatment with carbidopa ([1]; data not shown): virtually eliminated
time of peak rotation levels ([1]; oral, 30 mg/kg): approximately 30 minutes
rotations during the first 10-15 minutes ([1]; oral, 30 mg/kg, carbidopa pre-treatment): < 5 rotations/animal
rotations relative to oral delivery within the first 10-15 minutes ([1]; pulmonary, 2 mg total): greater than 3 times
time of peak rotations ([1]; pulmonary, 2 mg total): 25 to 30 min
effect on performance ([2]; oral, 20 mg/kg): slightly improved performance
time of maximal effects ([2]; oral, 30 mg/kg): ≤ 60 min
time to improved performance ([2]; oral, 30 mg/kg): ≤ 30 min
lowest dose with statistically significant improvements ([2]; pulmonary): 0.5 mg
time of peak benefits ([2]; pulmonary): 15 to 30 min
time to significant improvements ([2]; pulmonary): ≤ 10 min
time of maximal effects ([3]; oral, 30 mg/kg): ≤ 60 min
time to improved performance ([3]; oral, 30 mg/kg): ≤ 30 min
lowest dose with statistically significant (p<0.05) improvements ([3]; pulmonary): 1.0 mg
time of peak benefits ([3]; pulmonary): 15 to 30 min
time to significant improvements ([3]; pulmonary): ≤ 10 min
difference in drug required to produce equivalent efficacy, oral versus pulmonary ([4]; doses normalized by body weight): ~10 fold
time of maximal effects ([4]; oral, 20 mg/kg): 60 min
time of peak performance ([4]; oral, 30 mg/kg): 1 to 2 h
time to improved performance with the impaired limb ([4]; oral, 30 mg/kg): ≤ 30 min
lowest dose with significant improvements ([4]; pulmonary): 0.5 mg
pulmonary dose with recovery comparable to 30 mg/kg given orally ([4]; pulmonary): 1 mg
time of peak benefits ([4]; pulmonary, highest dose tested): 15 to 30 min
time to significant improvements ([4]; pulmonary, highest dose tested): ≤ 10 min
increase in blood levels of L-Dopa over time [5]: modest

albuterol sulfate [Micronized Alb. Sulfate (1)]
ρ (tap density) (Tap density): 0.26 g/cc
emitted aerodynamic diameter compared to primary aerodynamic diameter [6]: much larger
primary particle size as measured by RODOS [7]: ~2 microns
Dg (geometric diameter) ([7]; RODOS/HELOS): 2.5 μm
state of powder exiting the RODOS orifice ([7]; pressures below 2 bars): aggregated state
geometric diameter emitted from the inhaler [8]: greater than 30 microns
